The values that follow come from US20130217702A1 (Richter Gedeon Nyrt., priority 2010, published 2013).

Where a name gives a salt, the structure may show the parent alone.

For experiment [1], the target named is T1, human recombinant bradykinin B1 receptor (Homo sapiens, UniProt P46663).
T1 construct: host or cells: CHO cells, clone hB1-A5
T1 sequence (P46663 1-353): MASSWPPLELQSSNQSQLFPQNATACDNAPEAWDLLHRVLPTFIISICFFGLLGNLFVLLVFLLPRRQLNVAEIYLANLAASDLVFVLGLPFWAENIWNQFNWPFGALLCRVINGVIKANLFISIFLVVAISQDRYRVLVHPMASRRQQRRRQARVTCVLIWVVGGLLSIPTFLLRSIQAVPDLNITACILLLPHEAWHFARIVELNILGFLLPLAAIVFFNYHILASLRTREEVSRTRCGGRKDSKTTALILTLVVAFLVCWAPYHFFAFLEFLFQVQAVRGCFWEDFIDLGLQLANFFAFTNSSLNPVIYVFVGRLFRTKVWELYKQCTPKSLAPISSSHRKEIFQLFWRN
The experiment in a line: Human recombinant bradykinin B1 receptor competitive radioligand binding. Particulars: hB1 expressed in CHO cells, [3H]-[Des-Arg10] Kallidin radioligand; read-out: B1 binding. In a few lines: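 Competition radioligand binding on CHO-expressed hB1 membranes, using [3,4-prolyl-3,4-^3H(N)]-[Des-Arg^10] Kallidin as tracer, 15 min at 25° C. Excess Lys-des-Arg^9-Bradykinin (10 μM) set nonspecific binding. Sigmoidal fits of at least seven concentrations gave IC50, converted to Ki via Cheng-Prusoff; KD from Scatchard.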

Experiment [2] has as its target T2, recombinant human B1 receptors (Homo sapiens, UniProt P46663).
T2 construct: host or cells: CHO (CHO-B1)
T2 sequence (P46663 1-353): T1 sequence (P46663 1-353)
The experiment is described as follows: Functional assay: antagonist potency by cytosolic calcium measurement (plate reader fluorimeter) in CHO-B1 cells, agonist LysDABK. It is filed as cell-based. Particulars: CHO-B1 cells, inhibition of LysDABK (EC80)-evoked [Ca2+]i elevation; read-out: B1 func. The method in brief: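 IC50 is the concentration giving half-maximal inhibition of the LysDABK (EC80) calcium response, fitted from at least three experiments. CHO cells stably expressing human B1 were dye-loaded, exposed to compound for 20-25 min, then read by fluo-4 fluorescence (ΔF/F) at 37 °C.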

For `Cc1nc(-c2c(Cl)c3ccccc3n2-c2ccc(CNC(=O)C3(NC(=O)c4cccc(N)c4)CC3)cc2)no1` [Example 186, 3-Amino-N-(1-{4-[3-chloro-2-(5-methyl-[1,2,4]oxadiazol-3-yl)-indol-1-yl]-benzylcarbamoyl}-cyclopropyl)-benzamide hydrochloride], the Ki in experiment [1] is less than 20 nM. For the same molecule, the IC50 in experiment [2] was less than 20 nM.
Take `COc1cc(C(=O)NC2(C(=O)NCc3ccc(-n4c(-c5nnn(C)n5)c(Cl)c5ccccc54)cn3)CC2)on1` [Example 60]: the Ki in experiment [1] is less than 20 nM. In addition, the IC50 in experiment [2] is less than 20 nM.
Regarding `COc1ccc2c(c1)cc(-c1nc(C)no1)n2-c1ccc(CNC(=O)C2(NC(=O)c3cncc(C(F)(F)F)c3)CC2)cc1` [Example 79, N-(1-{4-[5-Methoxy-2-(3-methyl-[1,2,4]oxadiazol-5-yl)-indol-1-yl]-benzylcarbamoyl}-cyclopropyl)-5-trifluoromethyl-nicotinamide], in experiment [1], the Ki is less than 20 nM. For the same molecule, in experiment [2], the IC50 is less than 20 nM.
On to `Cc1nc(-c2cc3cc(F)ccc3n2-c2ccc(CNC(=O)C3(NC(=O)c4cccnc4F)CC3)cc2)no1` [Example 120, 2-Fluoro-N-(1-{4-[5-fluoro-2-(5-methyl-[1,2,4]oxadiazol-3-yl)-indol-1-yl]-benzylcarbamoyl}-cyclopropyl)-nicotinamide], for which, in experiment [1], the Ki is less than 20 nM. Moreover, the IC50 in experiment [2] was less than 20 nM.
In the case of `NC(=O)c1c(Cl)c2ccccc2n1-c1ccc(CNC(=O)C2(NC(=O)C(F)(F)F)CC2)cc1` [Example 187, 3-Chloro-1-[4-({[1-(2,2,2-trifluoro-acetylamino)-cyclopropanecarbonyl]-amino}-methyl)-phenyl]-1H-indole-2-carboxylic acid amide], the Ki in experiment [1] lay within 100 to 500 nM. Moreover, the IC50 in experiment [2] was in the range of 20 to 100 nM.
The matching figures for `Cc1nc(-c2c(Cl)c3cc(Cl)ccc3n2-c2ccc(CNC(=O)C3(NC(=O)c4cncc(C(F)(F)F)c4)CC3)cc2)no1` [Example 76, N-(1-{4-[3,5-Dichloro-2-(5-methyl-[1,2,4]oxadiazol-3-yl)-indol-1-yl]-benzylcarbamoyl}-cyclopropyl)-5-trifluoromethyl-nicotinamide]: less than 20 nM and less than 20 nM.
The matching figures for `Cc1nc(-c2c(Cl)c3cc(Cl)ccc3n2-c2ccc(CNC(=O)C3(NC(=O)c4cc(C5CC5)on4)CC3)cc2)no1` [Example 75, 5-Cyclopropyl-isoxazole-3-carboxylic acid (1-{4-[3,5-dichloro-2-(5-methyl-[1,2,4]oxadiazol-3-yl)-indol-1-yl]-benzylcarbamoyl}-cyclopropyl)-amide]: less than 20 nM and less than 20 nM.
The matching figures for `Cc1nc(-c2c(Cl)c3ccccc3n2-c2ccc(CNC(=O)C3(NC(=O)C4CCCC4)CC3)cc2)no1` [Example 144, Cyclopentanecarboxylic acid (1-{4-[3-chloro-2-(5-methyl-[1,2,4]oxadiazol-3-yl)-indol-1-yl]-benzylcarbamoyl}-cyclopropyl)-amide]: 20 to 100 nM and 20 to 100 nM.
In the case of `Cc1nc(-c2c(Cl)c3ccccc3n2-c2ccc(CNC(=O)C3(NC(=O)c4cncnc4)CC3)cc2)no1` [Example 166, Pyrimidine-5-carboxylic acid (1-{4-[3-chloro-2-(5-methyl-[1,2,4]oxadiazol-3-yl)indol-1-yl]-benzylcarbamoyl}-cyclopropyl)-amide], the Ki in experiment [1] was less than 20 nM. In experiment [2], the IC50 was less than 20 nM.
As to `COc1cc(C(=O)NC2(C(=O)NCc3ccc(-n4c(-c5nnn(C)n5)c(Cl)c5ccccc54)cc3F)CC2)on1` [Example 15, 3-Methoxy-isoxazole-5-carboxylic acid (1-{4-[3-chloro-2-(2-methyl-2H-tetrazol-5-yl)-indol-1-yl]-2-fluorobenzylcarbamoyl}-cyclopropyl)-amide], in experiment [1], the Ki is less than 20 nM. The IC50 in experiment [2] was less than 20 nM.
Consider `Cn1nnc(-c2c(Cl)c3ccccc3n2-c2ccc(CNC(=O)C3(NC(=O)CC(F)(F)F)CC3)cc2)n1` [Example 29, 1-(3,3,3,-Trifluoro-propionylamino)-cyclopropanecarboxylic acid 4-[3-chloro-2-(2-methyl-2H-tetrazol-5-yl)-indol-1-yl]-benzylamide], for which the Ki in experiment [1] is less than 20 nM. The IC50 in experiment [2] was less than 20 nM.
Turning to `COc1cc(C(=O)NC2(C(=O)NCc3ccc(-n4c(-c5ncc(C)o5)c(Cl)c5ccccc54)cc3)CC2)on1` [Example 38, 3-Methoxy-isoxazole-5-carboxylic acid (1-{4-[3-chloro-2-(5-methyl-oxazol-2-yl)-indol-1-yl]-benzylcarbamoyl}-cyclopropyl)-amide], the Ki in experiment [1] was less than 20 nM. In addition, the IC50 in experiment [2] fell in the range of 20 to 100 nM.
With `Cc1cc(C(=O)NC2(C(=O)NCc3ccc(-n4c(-c5noc(C)n5)c(Cl)c5ccccc54)cc3F)CC2)no1` [Example 107, 5-Methyl-isoxazole-3-carboxylic acid (1-{4-[3-chloro-2-(5-methyl-[1,2,4]oxadiazol-3-yl)-indol-1-yl]-2-fluoro-benzylcarbamoyl}-cyclopropyl)-amide], in experiment [1], the Ki is less than 20 nM. Besides, the IC50 in experiment [2] is less than 20 nM.
As to `Cc1nc(-c2c(Cl)c3ccccc3n2-c2ccc(CNC(=O)C3(NC(=O)Cc4ccsc4)CC3)cc2)no1` [Example 147, 1-(2-Thiophen-3-yl-acetylamino)-cyclopropanecarboxylic acid 4-[3-chloro-2-(5-methyl-[1,2,4]oxadiazol-3-yl)-indol-1-yl]-benzylamide], the Ki in experiment [1] was in the range of 100 to 500 nM. In addition, the IC50 in experiment [2] lay in the range of 20 to 100 nM.
The corresponding values for `Cc1nc(-c2c(Cl)c3ccccc3n2-c2ccc(CNC(=O)C3(NC(=O)c4cnn(C)c4)CC3)cc2)no1` [Example 121, 1-Methyl-1H-pyrazole-4-carboxylic acid (1-{4-[3-chloro-2-(5-methyl-[1,2,4]oxadiazol-3-yl)-indol-1-yl]-benzylcarbamoyl}-cyclopropyl)-amide] are less than 20 nM and 20 to 100 nM.
In the case of `Cc1nc(-c2c(Cl)c3ccccc3n2-c2ccc(CNC(=O)C3(NC(=O)C=Cc4ccoc4)CC3)cc2)no1` [Example 169, 1-(3-Furan-3-yl-acryloylamino)-cyclopropanecarboxylic acid 4-[3-chloro-2-(5-methyl-[1,2,4]oxadiazol-3-yl)-indol-1-yl]-benzylamide], in experiment [1], the Ki was less than 20 nM. In addition, the IC50 in experiment [2] was less than 20 nM.
`CC(NC(=O)C1(NC(=O)C(F)(F)F)CC1)c1ccc(-n2c(C(=O)N3CCCC3)c(Cl)c3ccccc32)cc1` (centres unmarked) [Example 33, 1-(2,2,2-Trifluoro-acetylamino)-cyclopropanecarboxylic acid (1-{4-[3-chloro-2-(pyrrolidine-1-carbonyl)-indol-1-yl]-phenyl}-ethyl)-amide]: the Ki in experiment [1] was in the range of 20 to 100 nM. For the same molecule, in experiment [2], the IC50 is 100 to 500 nM.
For the molecule `Cc1nc(-c2c(Cl)c3ccccc3n2-c2ccc(CNC(=O)C3(NC(=O)C4CCCO4)CC3)cc2)no1` (centres unmarked) [Example 136, Tetrahydro-furan-2-carboxylic acid (1-{4-[3-chloro-2-(5-methyl-[1,2,4]oxadiazol-3-yl)-indol-1-yl]-benzylcarbamoyl}-cyclopropyl)-amide], the Ki in experiment [1] lay in the range of 20 to 100 nM. In addition, the IC50 in experiment [2] lay within 20 to 100 nM.
`Cc1cnc(C(=O)NC2(C(=O)NCc3ccc(-n4c(-c5noc(C)n5)c(Cl)c5cc(F)ccc54)cc3)CC2)cn1` [Example 87, 5-Methyl-pyrazine-2-carboxylic acid (1-{4-[3-chloro-5-fluoro-2-(5-methyl-[1,2,4]oxadiazol-3-yl)-indol-1-yl]-benzylcarbamoyl}-cyclopropyl)-amide]: the Ki in experiment [1] was less than 20 nM. Further, in experiment [2], the IC50 was less than 20 nM.
`Cc1nc(-c2c(Cl)c3ccccc3n2-c2ccc(CNC(=O)C3(NC(=O)c4cccc(F)c4)CC3)c(F)c2)no1` [Example 105, N-(1-{4-[3-Chloro-2-(5-methyl-[1,2,4]oxadiazol-3-yl)-indol-1-yl]-2-fluoro-benzylcarbamoyl}-cyclopropyl)-3-fluoro-benzamide]: in experiment [1], the Ki was less than 20 nM. For the same molecule, in experiment [2], the IC50 was less than 20 nM.
With `COc1ccc2c(c1)c(Cl)c(-c1nc(C)no1)n2-c1ccc(CNC(=O)C2(NC(=O)c3cccnc3F)CC2)cc1` [Example 118, N-(1-{4-[3-Chloro-5-methoxy-2-(3-methyl-[1,2,4]oxadiazol-5-yl)-indol-1-yl]-benzylcarbamoyl}-cyclopropyl)-2-fluoro-nicotinamide], the Ki in experiment [1] is less than 20 nM. The IC50 in experiment [2] was less than 20 nM.
`COc1cc(C(=O)NC2(C(=O)NCc3ccc(-n4c(-c5noc(C)n5)c(C#N)c5ccccc54)cc3)CC2)on1` [Example 21, 3-Methoxy-isoxazole-5-carboxylic acid (1-{4-[3-cyano-2-(5-methyl-[1,2,4]oxadiazol-3-yl)-indol-1-yl]-benzylcarbamoyl}-cyclopropyl)-amide]: in experiment [1], the Ki is less than 20 nM. Besides, in experiment [2], the IC50 was less than 20 nM.
